In paper PMC5078989, “Targeted inhibition of the COP9 signalosome for treatment of cancer” (Nature Communications, 2016):

Tested on: panel of cancer cell lines
Experiment: Cell viability (CellTiter-Glo) dose-response across cancer cell line panel;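 also: after 72 h compound incubation with CellTiter-Glo ATP readout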
Format: cell-based, human
Settings: Homo sapiens
Description: Next, we explored the effect of CSN5 inhibition on the viability of cancer cells. To obtain a comprehensive picture, we generated dose–response curves with a CSN5 inhibitor across more than 500 cancer cell lines in a previously described standardized setting[47] (Supplementary Data 1).
A standardized CellTiter-Glo Assay (Promega #G7570) based on the quantification of ATP was applied according to the manufacturer's protocol to measure the amount of viable cells in culture. In brief, cells were seeded into 384-well plates at optimal density for each cell line. After 4 h, compounds were added at different concentrations in growth medium and incubated for another 72 h in a humidifying chamber at 37 °C and 5% CO2. […] EC50 values were calculated from the plot of percentage of inhibition versus inhibitor concentration using the nonlinear regression analysis software Origin 7.5SR6 (OriginLab Corp.).

- EC50 (HCC-1833 cells): 10.6 µM
- EC50 (HCT-15, HCT-15 cells): 6.96 µM
- EC50 (HD-MY-Z cells): 3.49 µM
- EC50 (HEC-50B, HEC-50B cells): 13 µM
- EC50 (HEC-108 cells): 14.7 µM
- EC50 (HEC-151 cells): 11.1 µM
- EC50 (HEC-265 cells): 14.2 µM
- EC50 (HEL 92.1.7, HEL 92.1.7 cells): 7.27 µM
- EC50 (HEL, HEL cells): 6.98 µM
- EC50 (HEY A8, Hey-A8 cells): 12.9 µM
- EC50 (HL-60, HL-60 cells): 15.7 µM
- EC50 (HLC-1 cells): 11.5 µM
- EC50 (HLE, HLE cells): 15.5 µM
- EC50 (HLF, HLF cells): > 30 µM
- EC50 (HMC-1-8 cells): 15.3 µM
- EC50 (HPBALL, HPB-ALL cells): 14.1 µM
- EC50 (HRT-18, HRT-18 cells): 9.14 µM
- EC50 (HSC-2, HSC-2 cells): 23.9 µM
- EC50 (HSC-3, HSC-3 cells): 12.7 µM
- EC50 (HSC-4, HSC-4 cells): 10 µM
- EC50 (HT-29, HT-29 cells): 12.4 µM
- EC50 (Hep 3B2.1-7 cells): 11.1 µM
- EC50 (Hep3B, Hep3B cells): 14.2 µM
- EC50 (Hs 294T, Hs 294T cells): 11.7 µM
- EC50 (Hs766T, Hs 766T cells): 24.2 µM
- EC50 (Hs 852.T cells): 15.4 µM
- EC50 (Hs 936.T cells): 17.2 µM
- EC50 (Hs 944.T cells): 15.3 µM
- EC50 (HuG1-N cells): 10.6 µM
- EC50 (HuP-T3, HUP-T3 cells): 23.8 µM
- EC50 (HuP-T4, HUP-T4 cells): 11 µM
- EC50 (Huh-7, HuH-7 cells): 9.02 µM
- EC50 (IGR-37, IGR-37 cells): 17.6 µM
- EC50 (IGR-39, IGR-39 cells): 10.6 µM
- EC50 (IGROV-1, IGROV1 cells): 12.3 µM
- EC50 (IPC-298, IPC-298 cells): 10.3 µM
- EC50 (Ishikawa, Ishikawa cells): 9.64 µM
- EC50 (J82, J82 cells): > 30 µM
- EC50 (JHH7, JHH-7 cells): 16.4 µM
- EC50 (JHH-4, JHH-4 cells): 16.2 µM
- EC50 (JHOM-1 cells): 8.92 µM
- EC50 (JHOS-2 cells): > 30 µM
- EC50 (JHUEM-2 cells): 15.3 µM
- EC50 (JIMT-1, JIMT-1 cells): 13.1 µM
- EC50 (JVM-2, JVM-2 cells): 13 µM
- EC50 (K029AX cells): 17 µM
- EC50 (KARPAS-422, KARPAS-422 cells): 12.5 µM
- EC50 (KATO III, KATO III cells): 9.94 µM
- EC50 (KBM-7, KBM-7 cells): 8.38 µM
- EC50 (KE-97, KE-97 cells): 7.93 µM
- EC50 (KLE, KLE cells): 12.6 µM
- EC50 (KMM-1, KMM-1 cells): 10.6 µM
- EC50 (KMRC-1, KMRC-1 cells): 17.7 µM
- EC50 (KMRC-20 cells): 18.5 µM
- EC50 (KMS-11, KMS-11 cells): 28.6 µM
- EC50 (KNS-62, KNS-62 cells): 15.4 µM
- EC50 (KO52 cells): 18.3 µM
- EC50 (KP-1N cells): 15 µM
- EC50 (KS-1 cells): 15.6 µM
- EC50 (KU-19-19, KU-19-19 cells): 16 µM
- EC50 (KURAMOCHI cells): 10.6 µM
- EC50 (KYSE-70, KYSE-70 cells): 10.4 µM
- EC50 (KYSE-150, KYSE-150 cells): 10.7 µM
- EC50 (KYSE-180, KYSE-180 cells): 14.1 µM
- EC50 (KYSE-410, KYSE-410 cells): 15 µM
- EC50 (Kasumi-3, Kasumi3 cells): 13 µM
- EC50 (Kasumi-6 cells): 6.45 µM
- EC50 (L3.3 cells): 20.2 µM
- EC50 (L-363, L-363 cells): 9.54 µM
- EC50 (L-428, L-428 cells): 11.8 µM
- EC50 (LC-1F cells): 16.3 µM
- EC50 (LCLC-103H, LCLC-103H cells): 8.84 µM
- EC50 (LIM1899 cells): 10.3 µM
- EC50 (LIM2099 cells): 11.4 µM
- EC50 (LIM2405 cells): 9.94 µM
- EC50 (LIM2550 cells): 6.3 µM
- EC50 (LMSU cells): 7.62 µM
- EC50 (LN-18, LN-18 cells): 13 µM
- EC50 (LN-229, LN-229 cells): 8.07 µM
- EC50 (LOU-NH91, LOU-NH91 cells): 11.2 µM
- EC50 (LOX IMVI, LOX IMVI cells): 9.19 µM
- EC50 (LP-1, LP-1 cells): 11.9 µM
- EC50 (LS180, LS 180 cells): 10.5 µM
- EC50 (LS-513, LS513 cells): 8.14 µM
- EC50 (LUDLU-1, LUDLU-1 cells): > 30 µM
- EC50 (Li-7, Li-7 cells): 23.7 µM
- EC50 (Lu-65, LU65 cells): 12.5 µM
- EC50 (Lu-99, LU99 cells): 9.78 µM
- EC50 (M-07e, M-07e cells): 16 µM
- EC50 (MCAS cells): 12.5 µM
- EC50 (MCC14/2 cells): 9.96 µM
- EC50 (MDA-MB-157, MDA-MB-157 cells): 14.7 µM
- EC50 (MDA-MB-175-VII, MDA-MB-175-VII cells): 19.8 µM
- EC50 (MDA-MB-231, MDA-MB-231 cells): 15.3 µM
- EC50 (MDA-MB-415, MDA-MB-415 cells): 13.4 µM
- EC50 (MDA-MB-435S, MDA-MB-435S cells): 12 µM
- EC50 (MDA-MB-436, MDA-MB-436 cells): 10.1 µM
- EC50 (MDA-MB-453, MDA-MB-453 cells): 6.48 µM
- EC50 (MDA-MB-468, MDA-MB-468 cells): 10.7 µM
- EC50 (MDST8, MDST8 cells): 11.2 µM
- EC50 (ME-180, ME180 cells): 11.9 µM
- EC50 (MEL-HO cells): 10.9 µM
- EC50 (MEL-JUSO, MEL-JUSO cells): 18.1 µM
- EC50 (MES-SA, MES-SA cells): 12.5 µM
- EC50 (MFE-280, MFE-280 cells): 10.8 µM
- EC50 (MFE-296, MFE-296 cells): 10.5 µM
- EC50 (MFM-223, MFM223 cells): 17.2 µM
- EC50 (MINO, Mino cells): 7.97 µM
- EC50 (MKN-1, MKN1 cells): 9.59 µM
- EC50 (MKN-45, MKN-45 cells): 26.8 µM
- EC50 (ML-2, ML-2 cells): 6.14 µM
- EC50 (MM127 cells): 6.45 µM
- EC50 (MM138 cells): 10.4 µM
- EC50 (MM253 cells): 26.5 µM
- EC50 (MM370 cells): 23 µM
- EC50 (MM383 cells): 11.2 µM
- EC50 (MM386 cells): 25.5 µM
- EC50 (MM415 cells): 13.3 µM
- EC50 (MM426 cells): 24.4 µM
- EC50 (MM466 cells): 24.5 µM
- EC50 (MM473, MM473 cells): 10.4 µM
- EC50 (MM485 cells): 11.2 µM
- EC50 (MM537 cells): 14 µM
- EC50 (MM576 cells): 15.8 µM
- EC50 (MM603 cells): 9.82 µM
- EC50 (MOG-G-CCM cells): 10.9 µM
- EC50 (MOLM-13, MOLM-13 cells): 6.66 µM
- EC50 (MOLP-8, MOLP-8 cells): 6.91 µM
- EC50 (MOLT-16, MOLT-16 cells): 5.34 µM
Structure (SMILES): COCc1ccccc1NCc1ccc([C@@H]2[C@H](O)CCCc3cncn32)c(-c2ccccc2Cl)c1 [CSN5i-2e, (5R,6R)-5-(2′-chloro-5-(((2-(methoxymethyl)phenyl)amino)methyl)-[1,1′-biphenyl]-2-yl)-6,7,8,9-tetrahydro-5H-imidazo[1,5-a]azepin-6-ol]
